Common to all, as to format: functional, cell-based
The target of test [1] is T1, Solute carrier family 15 member 1 (Homo sapiens) (UniProt P46059).
T1 sequence (whole entry): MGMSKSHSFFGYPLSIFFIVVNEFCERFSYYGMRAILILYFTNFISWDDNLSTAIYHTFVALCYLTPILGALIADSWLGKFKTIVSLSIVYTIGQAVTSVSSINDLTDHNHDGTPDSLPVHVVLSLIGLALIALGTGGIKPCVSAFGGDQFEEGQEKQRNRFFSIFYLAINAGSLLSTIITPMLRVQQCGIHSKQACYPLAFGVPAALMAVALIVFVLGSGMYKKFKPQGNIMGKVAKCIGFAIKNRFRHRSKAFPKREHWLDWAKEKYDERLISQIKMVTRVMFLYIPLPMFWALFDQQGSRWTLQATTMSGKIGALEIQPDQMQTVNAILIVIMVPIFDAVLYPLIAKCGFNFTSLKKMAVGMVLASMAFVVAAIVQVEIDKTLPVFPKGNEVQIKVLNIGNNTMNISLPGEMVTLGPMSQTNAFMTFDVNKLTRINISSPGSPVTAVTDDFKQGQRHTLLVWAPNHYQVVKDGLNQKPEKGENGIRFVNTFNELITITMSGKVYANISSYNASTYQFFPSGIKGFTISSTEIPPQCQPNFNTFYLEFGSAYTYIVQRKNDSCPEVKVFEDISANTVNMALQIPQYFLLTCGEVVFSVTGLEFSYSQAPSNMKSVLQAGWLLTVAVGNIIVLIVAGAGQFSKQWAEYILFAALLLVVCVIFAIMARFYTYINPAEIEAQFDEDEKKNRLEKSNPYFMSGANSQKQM
Kind of test: TP_TRANSPORTER: inhibition of Cefadroxil uptake (apical pH 6.5, Cefadroxil: 1000 uM, Loracarbef: 10000 uM) in Caco-2 cells. Also noted: scale not given: the % may be the effect or the level left.

The target in test [2] is T1, Solute carrier family 15 member 1 (Homo sapiens). The experiment in a line: TP_TRANSPORTER: inhibition of Cefadroxil uptake (apical pH 5.5, Cefadroxil: 1000 uM, Loracarbef: 10000 uM) in Caco-2 cells. Also noted: scale not given: the % may be the effect or the level left.
For test [3], the target named is T2, Solute carrier family 15 member 1 (Homo sapiens, UniProt P46059).
T2 sequence (P46059 whole entry): T1 sequence (whole entry)
Kind of test: TP_TRANSPORTER: inhibition of Cefadroxil uptake in Caco-2 cells.

Test [4] has as its target T2, Solute carrier family 15 member 1. The experiment in a line: TP_TRANSPORTER: inhibition of Cefixim uptake in Caco-2 cells.
In test [5] the target is T1, Solute carrier family 15 member 1 (Homo sapiens). The experiment in a line: TP_TRANSPORTER: inhibition of Cefadroxil uptake (apical pH 6.5, Cefadroxil: 1000 uM, Amoxicillin: 10000 uM) in Caco-2 cells. Details: scale not given: the % may be the effect or the level left.
For test [6] the target is unchanged. Kind of test: TP_TRANSPORTER: inhibition of Cefadroxil uptake (apical pH 5.5, Cefadroxil: 1000 uM, Amoxicillin: 10000 uM) in Caco-2 cells. Details: scale not given: the % may be the effect or the level left.

For the compound `N[C@@H](C(=O)N[C@@H]1C(=O)N2C(C(=O)O)=C(Cl)CC[C@H]12)c1ccccc1`, the Activity in test [1] was 60.3%; in test [2], 72.6%. As for `C=CC1=C(C(=O)O)N2C(=O)[C@@H](NC(=O)/C(=N\OCC(=O)O)c3csc(N)n3)[C@H]2SC1` [CEFIXIME], the Ki (usually the equilibrium dissociation constant of an inhibitor or competing ligand from its target) in test [3] worked out at 1310 µM. Turning to `CC1=C(C(=O)O)N2C(=O)[C@@H](NC(=O)[C@H](N)c3ccc(O)cc3)[C@H]2SC1` [CEFADROXIL], in test [4], the affinity, expressed as Ki, was 1450 µM. As to `CC1(C)S[C@@H]2[C@H](NC(=O)[C@H](N)c3ccc(O)cc3)C(=O)N2[C@H]1C(=O)O`, the Activity in test [5] is 62.9%; in test [6], 85.7%.

Values taken from ChEMBL document CHEMBL2074467, “Transport characteristics of differently charged cephalosporin antibiotics in oocytes expressing the cloned intestinal peptide transporter PepT1 and in human intestinal Caco-2 cells” (J Pharmacol Exp Ther, 1996).
